Target: T1, glucokinase (GK), residues 12-465 of the human enzyme (Homo sapiens, UniProt P35557)
T1 construct: I.D. No. 1 corresponds to residues 12-465 of glucokinase; made in house; host or cells: E. coli DH10b-Tlr
T1 sequence (P35557 with tags, fused parts or gaps isoform P35557-2): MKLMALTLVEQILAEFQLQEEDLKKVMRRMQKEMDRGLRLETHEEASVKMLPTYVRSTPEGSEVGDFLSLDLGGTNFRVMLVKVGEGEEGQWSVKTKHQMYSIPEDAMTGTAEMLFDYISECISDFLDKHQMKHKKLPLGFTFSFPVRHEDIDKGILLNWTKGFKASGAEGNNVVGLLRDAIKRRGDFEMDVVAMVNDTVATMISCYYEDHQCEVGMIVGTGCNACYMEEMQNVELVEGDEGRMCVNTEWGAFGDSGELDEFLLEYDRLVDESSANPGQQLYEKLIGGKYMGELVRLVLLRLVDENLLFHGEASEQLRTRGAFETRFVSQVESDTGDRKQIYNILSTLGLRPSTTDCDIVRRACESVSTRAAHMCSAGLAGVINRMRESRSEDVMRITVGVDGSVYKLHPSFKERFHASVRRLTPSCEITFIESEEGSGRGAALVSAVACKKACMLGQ
Assay: Enzymatic glucokinase activity assay (KinaseGlo luminescence, ATP consumption)
Assay type: biochemical
Settings: 5 μM ATP, 5 mM Glucose; for EC50: GK activation, Kact = concentration giving 50% of the maximal increase in GK activity, read-out: pKact; for Emax: calculated maximal gain in GK enzyme activity at a saturating concentration of the compound, read-out: % ACTmax
How it was run: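 C-terminally FLAG-tagged enzyme expressed in E. coli and purified. Reaction: 25 mM Hepes pH 7.2, 25 mM NaCl, 10 mM MgCl2, 0.01% Brij35, 1 mM DTT, 5 μM ATP, 5 mM glucose, 2% DMSO, 60 min at room temperature. Remaining ATP was read by luciferase luminescence; pKact and % ACTmax came from nonlinear fits of 11-point 2-fold dilutions.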

Row | Structure (SMILES) | EC50 [nM] | Emax [%]
1 | O=C(Nc1nccs1)[C@H](CC1CCCCC1)N1CCN(S(=O)(=O)c2ccc(Cl)cc2)CC1=O [Example 43, (S)-2-(4-(4-chlorophenylsulfonyl)-2-oxopiperazin-1-yl)-3-cyclohexyl-N-(thiazol-2-yl)propanamide] | 794 to 1260 | 74.1 to 97
2 | O=C(Nc1nccs1)[C@H](CC1CCCCC1)N1CCN(S(=O)(=O)c2cccc3ccccc23)CC1=O [Example 65, (S)-3-cyclohexyl-2-(4-(naphthalen-1-ylsulfonyl)-2-oxopiperazin-1-yl)-N-(thiazol-2-yl)propanamide] | 1580 to 2510 | ≤ 74
3 | O=C(Nc1ncc(Cl)s1)C(CC1CCOCC1)N1CCN(S(=O)(=O)C2CC2)CC1=O (centres unmarked) [Example 23, N-(5-chlorothiazol-2-yl)-2-(4-(cyclopropylsulfonyl)-2-oxopiperazin-1-yl)-3-(tetrahydro-2H-pyran-4-yl)propanamide] | 1580 to 2510 | ≥ 119
4 | O=C(Nc1ncc(Cl)s1)[C@H](CC1CCOCC1)N1CCN(S(=O)(=O)c2cccs2)CC1=O [Example 37, (S)-N-(5-chlorothiazol-2-yl)-2-(2-oxo-4-(thiophen-2-ylsulfonyl)piperazin-1-yl)-3-(tetrahydro-2H-pyran-4-yl)propanamide] | ≤ 631 | 74.1 to 97
5 | O=C(O)c1cccc(S(=O)(=O)N2CCN([C@@H](CC3CCCCC3)C(=O)Nc3nccs3)C(=O)C2)c1 [Example 49, (S)-3-(4-(3-cyclohexyl-1-oxo-1-(thiazol-2-ylamino)propan-2-yl)-3-oxopiperazin-1-ylsulfonyl)benzoic acid] | ≥ 3160 | 74.1 to 97

Now from value to compound:

Row | EC50 [nM] | Emax [%] | Structure (SMILES)
6 | 1580 to 2510 | 97.1 to 107 | O=C(Nc1nccs1)[C@H](CC1CCCCC1)N1CCN(S(=O)(=O)c2cccc([N+](=O)[O-])c2)CC1=O [Example 156, (S)-3-cyclohexyl-2-(4-(3-nitrophenylsulfonyl)-2-oxopiperazin-1-yl)-N-(thiazol-2-yl)propanamide]
7 | 794 to 1260 | 97.1 to 107 | CCc1ccc(S(=O)(=O)N2CCN([C@@H](CC3CCCCC3)C(=O)Nc3nccs3)C(=O)C2)cc1 [Example 225, (S)-3-cyclohexyl-2-(4-(4-ethylphenylsulfonyl)-2-oxopiperazin-1-yl)-N-(thiazol-2-yl)propanamide]
8 | 794 to 1260 | ≤ 74 | O=C(Nc1nccs1)[C@H](CC1CCCCC1)N1CCN(S(=O)(=O)CCc2ccc(Cl)cc2)CC1=O [Example 98, (S)-2-(4-(4-chlorophenethylsulfonyl)-2-oxopiperazin-1-yl)-3-cyclohexyl-N-(thiazol-2-yl)propanamide]
9 | 794 to 1260 | 97.1 to 107 | O=C(Nc1nccs1)[C@H](CC1CCCCC1)N1CCN(S(=O)(=O)c2ccc(F)cc2)CC1=O [Example 89, (S)-3-cyclohexyl-2-(4-(4-fluorophenylsulfonyl)-2-oxopiperazin-1-yl)-N-(thiazol-2-yl)propanamide]
10 | 1580 to 2510 | ≤ 74 | Cc1cc(S(=O)(=O)N2CCN([C@@H](CC3CCCCC3)C(=O)Nc3nccs3)C(=O)C2)c(Cl)cc1Cl [Example 221, (S)-3-cyclohexyl-2-(4-(2,4-dichloro-5-methylphenylsulfonyl)-2-oxopiperazin-1-yl)-N-(thiazol-2-yl)propanamide]
11 | 1580 to 2510 | 97.1 to 107 | O=C(Nc1nccs1)[C@H](CC1CCCCC1)N1CCN(S(=O)(=O)Cc2ccc(Cl)cc2)CC1=O [Example 69]
12 | ≤ 631 | 108 to 119 | Cc1cc(S(=O)(=O)N2CCN([C@@H](CC3CCCCC3)C(=O)Nc3nccs3)C(=O)C2)c(C)o1 [Example 181, (S)-3-cyclohexyl-2-(4-(2,5-dimethylfuran-3-ylsulfonyl)-2-oxopiperazin-1-yl)-N-(thiazol-2-yl)propanamide]
13 | ≥ 3160 | 108 to 119 | O=C(Nc1nccs1)[C@H](CC1CCCCC1)N1CCN(S(=O)(=O)c2c(Cl)nc3sccn23)CC1=O [Example 164, (S)-2-(4-(6-chloroimidazo[2,1-b]thiazol-5-ylsulfonyl)-2-oxopiperazin-1-yl)-3-cyclohexyl-N-(thiazol-2-yl)propanamide]

From patent publication US8173645B2 (Takeda San Diego, Inc., priority 2007, dated 2012)
